Test results as given in patent publication US20130096077A1, “Nematicidal Mixtures for Use in Sugar Cane” (priority 2010, published 2013).

What was measured:
Assay type in all cases: in vivo
[1] = test system: Helicotylenchus species; assay: Nematicidal activity, sugar cane field, in furrow tank mix application; settings: fipronil 200, abamectin 90, mixture 200 + 90 g a.i./ha; for Nematode activity in the soil 90 days after planting: 1000 ml soil incl. roots, in furrow at planting, blank 317; for Efficacy/mortality: 90 days after planting, in furrow
Protocol: (§1) Fipronil was used in the commercially available formulation Regent® 800 WG, containing Fipronil in a concentration of 800 g/kg. Abamectin was used in the commercially available EC formulation Vertimec® 18 CE, containing Abamectin in a concentration of 18 g/I.
(§2) Tank mixes of the commercial formulations of fipronil and abamectin diluted with water were prepared in a ratio such that the application rates identified in the tables below were achieved when 100 liter of tank mix formulation were applied to sugar cane in furrow.
(§3) The tank mix formulation was applied in furrow spraying over the sugar cane stems (cuttings/segments, 1 to 3 nodes segments) at the planting time.
(§4) The synergistic effect was determined by Limpel's formula. Synergism was evident if the observed effect for the mixture is greater than the expected calculated effect:
(§5) E=Expected activity of the mixture X=activity of compound X Y=activity of compound Y
(§6) Treatments were done mid of June 2009 in Brazil in sugar cane fields which had not been pretreated with nematicides, that is, in fields showing an average nematode population.
(§7) Treatments were done only at the time of planting, that is, no further in furrow treatment was conducted. Each treatment experiment was replicated 6 times.
(§8) Nematicidal activity for Helicotylenchus and Paratrichodorus species was evaluated before the spraying for different portions of 1000 ml of soils collected at different sites of the field (“blank” in Table 1).
(§9) 90 days after spraying the tank mix formulation, different portions of 1000 ml of soil (including roots) were collected at different sites of the field, and the soil and the root knots were evaluated for nematicidal activity of Helicotylenchus and Paratrichodorus species and efficacy/mortality, respectively.
(§10) Synergism was evident if the % observed mortality for the mixture was greater than the % expected mortality.

[2] = test system: Paratrichodorus species; assay: as above; settings: fipronil 200, abamectin 90, mixture 200 + 90 g a.i./ha; for Nematode activity in the soil 90 days after planting: 1000 ml soil incl. roots, in furrow at planting, blank 133; for Efficacy/mortality: 90 days after planting, in furrow
Protocol: as §1, §2, §3, §4, §5, §6, §7, §8, §9, §10

[3] = test system: sugar cane; assay: Plant health activity: tillering of sugar cane; settings: fipronil 200, abamectin 90, mixture 200 + 90 g a.i./ha; for No. of tillers 180 days after planting: average per 1.0 linear meter, in furrow at planting, blank 19.75; for % of increase: tillers 180 days after planting vs blank
Protocol: as §1, §2, §3, §4, §5
The tank mix formulation of the mixture of fipronil and abamectin was prepared as described above for testing of nematicidal activity. The tank mix formulation was applied to sugar cane as described above for testing of nematicidal activity.
Tillering was evaluated before the application of the tank mix (“blank” in Table 2) and 180 days after planting/application the tank mix formulation. Each replication (plot) was evaluated at 3 different randomized points, each point consisting of 1.0 linear meter of the central rows of the plot. Evaluation was done for 4 replications (plots).

[4] = test system: sugar cane (variety SP80-1842); assay: Yield increase of sugar cane; settings: fipronil 200, abamectin 126, mixture 200 + 126 g a.i./ha; for Yield: in furrow at planting, untreated 102.81; for % increase of yield: vs untreated

Compound | Nematode activity in the soil 90 days after planting [1] | Efficacy/mortality [1] | Nematode activity in the soil 90 days after planting [2] | Efficacy/mortality [2] | No. of tillers 180 days after planting [3] | % of increase [3] | Yield [4] | % increase of yield [4]
N#Cc1nn(-c2c(Cl)cc(C(F)(F)F)cc2Cl)c(N)c1[S+]([O-])C(F)(F)F (stereo not shown) [Fipronil] | 367 | 0% | 100 | 25% | 20.25 | 2.5% | 106.31 tons/ha | 3.4%
Abamectin | 117 | 63% | 133 | 0% | 21.5 | 8.9% | 106.33 tons/ha | 3.4%
